Results: patent US20090298708A1, “2'-DEOXY-2'-FLUORO-BETA-D-ARABINONUCLEOSIDE 5'-TRIPHOSPHATES AND THEIR USE IN ENZYMATIC NUCLEIC ACID SYNTHESIS” (priority 2006, published 2009)
Marks after values point to notes of the source that are not given here.

Molecular target: T1, 9° Nm™ DNA polymerase (9N) (Thermococcus sp., UniProt Q56366, E143D)
T1 construct: purchased New England Biolabs; host or cells: E. coli
Assay: Primer extension assay with 9°Nm DNA polymerase
Assay type: biochemical, Thermococcus species (strain 9° N-7)
Design: key to Incorporation of three 2′F-araTTP / 2′F-araCTP (incorporation efficiency) / Enzymatic activity during primer extension reactions: ++++: excellent (no pausing observed); +++: very good (with slight pausing); ++: Good, full-length products with significant pausing; +: significant pausing, no full-length product but at least one 2′F-araN incorporation detected
Conditions: for Order of efficiency of incorporation: DNA template PF22 (T/U triphosphates) or PF24 (C triphosphates), three contiguous units; for full-length products generated: DNA template PF22, within 2 min, without pausing; for Incorporation of three 2′F-araTTP / 2′F-araCTP (incorporation efficiency): DNA template PF22 (2′F-araTTP) or PF24 (2′F-araCTP); for Enzymatic activity during primer extension reactions: plus dATP, dGTP
Experimental: Various different types of DNA polymerases were assessed, including the mesophilic enzyme Klenow fragment of DNA pol I (3′→5′ exo-) (“Kf”); the thermophilic DNA polymerases DV, 9N, Taq, Bst pol I, Th and Ph; and the viral reverse transcriptases HIV RT and MMLV. Kf is a genetically engineered proteolytic product of E. coli pol A gene that encodes DNA polymerase I which retains polymerase activity but has a mutation which abolishes the 3′->5′ and 5′->3′ exonuclease activities. DV is a genetically engineered DNA polymerase purified from a strain of E. coli that carries the DV DNA polymerase gene from Pyrococcus species GB-D. The gene has been engineered to eliminate 3′->5′ proofreading exonuclease activity. 9N is a genetically engineered DNA polymerase that has decreased 3′->5′ proofreading exonuclease activity. 9N is purified from a strain of E. coli that carries a modified 9° N DNA polymerase gene from Thermococcus species (strain 9° N-7). […] Taq polymerase is isolated from E. coli engineered to express Taq polymerase from Thermus aquaticus YT-1. Bst DNA polymerase (Large fragment) is a genetically engineered polymerase that consists of the portion of the Bacillus stearothemmophilus DNA polymerase protein responsible for 5′->3′ polymerase activity but lacks the 5′->3′ exonuclease domain. Th DNA polymerase is a genetically engineered, archaeon-derived DNA polymerase that is a variant of the 9N polymerase described above. The recombinant protein is isolated from E. coli engineered to express 9° NA485L (exo-) DNA polymerase gene, a genetic variant of the native DNA polymerase from Thermococcus species 9° N-7. Ph is a recombinant DNA polymerase that consists of a novel Pyrococcus-like enzyme fused with a double-strand DNA-binding and processivity-enhancing domain.
Primer extension assays were used to assess the incorporation of 2′F-araNTP on the various DNA templates (Table 1). The DNA primer (PF20) was first radioactively labeled at the 5′-hydroxyl terminus with a radioactive phosphorus probe and the enzyme T4 polynucleotide kinase (T4 PNK) (see Example 1 for General Methods). To assess the incorporation of 2′F-araNTPs, the primer and template were annealed, and the nucleoside 5′-triphosphates added in the presence of enzyme under the conditions specified in Table 2. Time points were obtained by analyzing small aliquots from the reaction mixture through polyacryamide gel electrophoresis (PAGE) and autoradiography.
Unless otherwise noticed in the Examples described below, the conditions used in the primer extension assays, such as dNTP concentration, reaction temperatures, concentration of Mg^2+, and reaction buffers (provided by the manufacturers, except for the HIV buffer which was prepared in-house) are shown in Table 2.
Primer extension assays were used to assess the incorporation of 2′F-araTTP on the DNA template (PF22). The DNA primer (PF20) was first radioactively labeled at the 5′-hydroxyl terminus with a radioactive phosphorus probe and the enzyme T4 polynucleotide kinase (T4 PNK) according to the manufacturer's specifications (MBI Fermentas Life Sciences, Burlington, ON). Incorporation of the ^32P label was accomplished in reaction mixtures consisting of DNA substrate (200 pmol), 2 μl loxreaction buffer (Buffer A for forward reaction: 500 mM Tris-HCl, pH 7.6 at 25° C., 100 mM MgCl2, 50 mM DTT, 1 mM spermidine and 1 mM EDTA), 1 μl T4 PNK enzyme solution (10 U/1 μl in a solution of 20 mM Tris-HCl, pH 7.5, 25 mM KCl, 0.1 mM EDTA, 2 mM DTT and 50% glycerol), 6 μl [γ-^32P]-ATP solution (6000 Ci/mmol, 10 mCi/ml; Amersham Biosciences, Inc.) and autoclaved sterile water to a final volume of 20 μl. The reaction mixture was incubated for about 45-60 min at 37° C., followed by a second incubation for 10 min at 95° C. to heat denature and deactivate the kinase enzyme.

T1 sequence (Q56366 whole entry E143D): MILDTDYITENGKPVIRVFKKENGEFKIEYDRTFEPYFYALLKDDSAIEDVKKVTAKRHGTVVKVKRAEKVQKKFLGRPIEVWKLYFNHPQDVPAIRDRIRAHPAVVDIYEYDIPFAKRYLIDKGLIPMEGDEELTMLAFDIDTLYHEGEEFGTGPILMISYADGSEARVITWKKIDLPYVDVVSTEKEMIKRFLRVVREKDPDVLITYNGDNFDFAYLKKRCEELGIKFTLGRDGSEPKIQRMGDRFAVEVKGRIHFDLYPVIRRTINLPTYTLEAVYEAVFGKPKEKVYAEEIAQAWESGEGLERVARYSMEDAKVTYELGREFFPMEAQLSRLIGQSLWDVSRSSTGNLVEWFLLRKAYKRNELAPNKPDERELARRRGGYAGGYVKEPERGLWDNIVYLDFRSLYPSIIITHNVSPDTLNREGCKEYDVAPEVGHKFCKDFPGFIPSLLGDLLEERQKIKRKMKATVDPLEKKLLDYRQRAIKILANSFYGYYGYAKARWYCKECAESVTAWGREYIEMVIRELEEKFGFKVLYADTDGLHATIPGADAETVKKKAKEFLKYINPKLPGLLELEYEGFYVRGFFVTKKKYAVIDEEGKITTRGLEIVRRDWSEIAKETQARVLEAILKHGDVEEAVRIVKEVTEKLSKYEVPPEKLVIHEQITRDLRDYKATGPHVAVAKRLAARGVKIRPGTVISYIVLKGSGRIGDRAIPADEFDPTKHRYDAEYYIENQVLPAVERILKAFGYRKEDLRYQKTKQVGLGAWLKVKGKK

| SMILES | Order of efficiency of incorporation (55° C.) | full-length products generated (55° C.) | Incorporation of three 2′F-araTTP / 2′F-araCTP (incorporation efficiency) (37° C.) | other results |
| --- | --- | --- | --- | --- |
| Cc1cn([C@H]2C[C@H](O)[C@@H](COP(=O)(O)OP(=O)(O)OP(=O)(O)O)O2)c(=O)[nH]c1=O [dTTP, reference compound] | dTTP~2′F-araTTP > 2′F-rUTP | ca. 100% | – | – |
| O=c1ccn([C@@H]2O[C@H](COP(=O)(O)OP(=O)(O)OP(=O)(O)O)[C@@H](O)[C@H]2F)c(=O)[nH]1 [2′F-rUTP, 1-(2-deoxy-2-fluoro-β-D-ribo-furanosyl)uracil 5′-triphosphate, reference compound] | dTTP~2′F-araTTP > 2′F-rUTP | – | – | expected full-length product (DNA template PF22, after one hour, 55° C.): ca. 20% |
| Cc1cn([C@@H]2O[C@H](COP(=O)(O)OP(=O)(O)OP(=O)(O)O)[C@@H](O)[C@@H]2F)c(=O)[nH]c1=O [2′F-araTTP, 1-(2-deoxy-2-fluoro-β-D-arabino-furanosyl)thymine 5′-triphosphate] | dTTP~2′F-araTTP > 2′F-rUTP | ca. 100% | ++++ | Enzymatic activity during primer extension reactions (Example 2, DNA template PF22, 3x 2′F-araTTP, dCTP, at 37° C.): +++^b |
| Nc1ccn([C@@H]2O[C@H](COP(=O)(O)OP(=O)(O)OP(=O)(O)O)[C@@H](O)[C@H]2F)c(=O)n1 [2′F-rCTP, 1-(2-deoxy-2-fluoro-β-D-ribofuranosyl) cytosine 5′-triphosphate, reference compound] | dCTP~2′F-araCTP~2′F-rCTP | – | – | – |
| Nc1ccn([C@@H]2O[C@H](COP(=O)(O)OP(=O)(O)OP(=O)(O)O)[C@@H](O)[C@@H]2F)c(=O)n1 [2′F-araCTP, 1-(2-deoxy-2-fluoro-β-D-arabinofuranosyl)cytosine 5′-triphosphate] | dCTP~2′F-araCTP~2′F-rCTP | – | None | Incorporation of three 2′F-araTTP / 2′F-araCTP (incorporation efficiency) (55° C.): ++++; Enzymatic activity during primer extension reactions (Example 3, DNA template PF24, 3x 2′F-araCTP, dTTP, 55° C.): +++ |
| Nc1ccn([C@H]2C[C@H](O)[C@@H](COP(=O)(O)OP(=O)(O)OP(=O)(O)O)O2)c(=O)n1 [dCTP] | dCTP~2′F-araCTP~2′F-rCTP | – | – | – |
